The results in this text go back to paper PMC9814400 (Communications Chemistry, 2022).

Assay [1] deals with T1, p97-ND1 (Homo sapiens, UniProt P55072).
T1 construct: His6 (TEV protease-cleavable) (N); made in house
Kind of assay: STD-NMR with p97-ND1 in the presence of 500 µM ADP. Set-up: key to mean STD-effect (ND1) / maximum STD-effect (ND1): STD effect = Idiff/Ioff × 100 (%). The conditions noted are these: for maximum STD-effect (ND1) / mean STD-effect (ND1): Supplementary Table 3; for STD (maximum STD signal measured with p97-ND1): aromatic resonances, 428 µM fragment, 30 µM protein, 500 µM ADP. It is filed as binding. The procedure: The NMR measurements were carried out with the biologically more relevant p97-ND1 construct in the presence of 500 µM ADP to block the nucleotide binding site. The STD effect was calculated by dividing the intensity of the difference spectrum by the intensity of the off-spectrum (Idiff/ Ioff × 100) for each signal. For further analysis only resonances in the aromatic region of the ^1H NMR spectrum of the individual ligand were considered. A mean STD effect of each fragment interacting with p97-ND1 was calculated using the sum of the individual STD effects divided by the number of signals considered. Furthermore, the maximum STD effect of each compound was determined. […] Similar results were obtained in the previously reported fragment screen with p97[26]. An overview of the STD effects is shown in Supplementary Fig. 4.
All Saturation-Transfer-Difference (STD)[32] measurements were performed on a Bruker Avance III 400 MHz spectrometer (Karlsruhe, Germany) operating at 400.13 MHz with a PABBI 1H/D-BB Z-GRD inverse probe at 300 K adjusted with a BSVT (Bruker) temperature control unit. Temperature calibration was carried out with 99.8% CD3OD (282–330 K). The stddiffesgp.3 pulse program from the Bruker pulseprogram library was used for data acquisition. The suppression of the HDO signal (4.703 ppm) was achieved by the excitation sculpting method. The saturation frequency for the on- and off-resonances was set to −400 Hz and −16,000 Hz, respectively. The saturation time was 3 s with a relaxation delay D1 of 4 s.
The protein stock solutions were transferred to a deuterated buffer containing 35 mM potassium phosphate and 25 mM NaCl in D2O at a pD of 7.5 using 0.5 mL Centricon devices (Merck Millipore) with a MWCO of 30 kDa by washing and centrifuging several times at 10,000 × g and 4 °C. Buffer-exchanged protein was adjusted to a concentration of 30 µM with NMR buffer. The respective fragment concentration was 428 µM with a final DMSO-d6 fraction of 5% (v/v). All measurements were performed in the presence of 500 µM ADP (in case of the ND1 domain) and 5 mM MgCl2. All data were analyzed using TopSpin 4.0.8 (Bruker Corporation, Billerica, MA, USA).

Assay [2] has as its target T1, p97-ND1. The assay is described as follows: BLI dose-response binding to the p97-ND1 construct. As to conditions: BLI steady state, 1:1 Langmuir model; errors from the fitting model; read-out: KD p97-ND1. The text has this:
As starting point for the initial screen, a BLI binding assay was developed with a p97-ND1 construct (amino acids 2-481) to allow validation with adenosine diphosphate (ADP) as a positive control. The p97-ND1 construct was enzymatically biotinylated via an Avi-Tag and Escherichia coli biotin ligase[28] and loaded to high response (>5 nm) on Super Streptavidin Biosensors (SSA), yielding a homogeneous sensor surface. […] The kinetic analysis of the sensorgrams indicated a clear 1:1 binding model for ADP. […] Another surprising result were the high responses upon ADP-binding with shifts over 0.7 nm. These high values indicate that the BLI signal is not only dependent on the molar weight as in SPR but may also reflect conformational changes induced in p97 upon ADP binding.
For 12 fragments, a dose-dependent binding was observed and a 1:1 Langmuir model could be applied to obtain the respective KD value. The determined KD^(p97-ND1) values mostly agreed well with those previously determined for the respective fragments with the isolated N-domain. […] TROLL1 and VIK40 were therefore not considered further.
Protein constructs for BLI measurements were enzymatically biotinylated using BirA[28]. Biotinylated p97 was loaded on Super Streptavidin Biosensors (SSA) obtained from Sartorius as follows. SSA-sensors were equilibrated in PBS-buffer, loaded with a protein solution containing 50 µg/mL (p97-ND1) or 100 µg/mL (p97-N) protein, blocked with biocytin and washed in PBS buffer. Reference SSA-sensors were set up by blocking them with a 10 µg/mL biocytin solution for 5 min[27]. The SSA-sensors were loaded to a shift of up to 7 nm with p97-ND1 and 10 nm with p97-N, respectively.
Screening plates were prepared by adding 10 µL of a 10 mM DMSO stock solution of library compound to 190 µL of PBS buffer (containing 0.05% TWEEN 20, 1 mM DTT and 5 mM MgCl2 [only for p97-ND1]) in 96 well plates (Greiner). The final DMSO concentration was 5% (v/v). All BLI measurements were performed on an Octet RED96e (Sartorius) device.
Selected fragments of the initial screenings were confirmed by dose-response-titrations using six concentrations ranging from 1000 to 31.3 µM in a 1:1 dilution series. Every concentration was measured twice. The assay settings were as follows: baseline measurement 15 s; association time 120 s and dissociation time 180 s. The double referenced data were further analyzed in Origin Pro to estimate the affinity by fitting the signals of the steady states to a 1:1 Langmuir model. For the fitting all measured data points (n = 2) were considered.

Molecules are shown by their SMILES.

T1 sequence (P55072 2-481): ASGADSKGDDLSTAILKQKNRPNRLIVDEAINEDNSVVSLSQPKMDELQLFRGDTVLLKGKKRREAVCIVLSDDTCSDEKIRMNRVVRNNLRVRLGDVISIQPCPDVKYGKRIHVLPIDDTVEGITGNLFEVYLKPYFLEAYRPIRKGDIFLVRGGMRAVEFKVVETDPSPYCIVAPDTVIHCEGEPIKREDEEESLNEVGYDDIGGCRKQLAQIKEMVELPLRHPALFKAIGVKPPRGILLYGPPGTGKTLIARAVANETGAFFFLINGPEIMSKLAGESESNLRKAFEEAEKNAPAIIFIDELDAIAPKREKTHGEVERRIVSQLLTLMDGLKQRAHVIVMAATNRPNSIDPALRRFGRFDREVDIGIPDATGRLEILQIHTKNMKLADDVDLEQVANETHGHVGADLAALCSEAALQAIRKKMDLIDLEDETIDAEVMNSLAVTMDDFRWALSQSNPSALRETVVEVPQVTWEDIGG

Consider `NCC(O)c1ccc(Br)cc1` (centres unmarked) [TROLL2], for which, at p97-ND1 [1], the “maximum STD-effect (ND1)” value is given as 37.7, the “mean STD-effect (ND1)” value is on record as 36.0 and the “STD (maximum STD signal measured with p97-ND1)” value stood at 37.7%. Moreover, at p97-ND1 [2], the Kd is 321 ± 67 µM.

With `Cc1ccc(-c2cc(N)n[nH]2)o1` [TROLL8], on p97-ND1 [1], the “maximum STD-effect (ND1)” value was 41.0, the “mean STD-effect (ND1)” value was determined as 33.1 and the “STD (maximum STD signal measured with p97-ND1)” value turned out to be 41.0%. In addition, on p97-ND1 [2], the dissociation constant Kd was 598 ± 214 µM.

Take `Cc1oc(CN)nc1-c1ccccc1` [TROLL12]: at p97-ND1 [1], the “maximum STD-effect (ND1)” value was 47.9, the “mean STD-effect (ND1)” value stood at 44.5 and the “STD (maximum STD signal measured with p97-ND1)” value was determined as 47.9%.

For orientation: Kd means the equilibrium constant for the complex coming apart.
